Columns and labels:
[1] = test system: Puccinia recondita f. Sp. Tritici; assay: Fungicidal activity against Puccinia recondita f. sp. tritici / wheat / leaf disc preventative (brown rust); format: in vivo; conditions: foliar, 200 ppm in the applied formulation, wheat leaf segments, preventative, compared to untreated control leaf disks, read-out: disease control
In short: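 Preventative leaf-segment test, wheat cv. Kanzler on water agar. Spray compound at 200 ppm, inoculate with spores 1 day later; 19° C., 75% rh, 12/12 h light. Read-out: % disease control vs untreated, 7 to 9 days after application.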

[2] = test system: Puccinia recondita f. Sp. Tritici; assay: Fungicidal activity against Puccinia recondita f. sp. tritici / wheat / leaf disc curative (brown rust); format: in vivo; conditions: foliar, 24 h, 200 ppm in the applied formulation, wheat leaf segments, curative (applied 1 day after inoculation), compared to untreated control leaf disks, read-out: disease control
In short: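 Inoculate cv. Kanzler segments on agar; hold dark, 19° C, 75% RH. Spray diluted formulated compound at day 1. Incubate 12 h light/12 h dark, same temperature and humidity; score % control vs untreated 6–8 days later.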

Phakopsora Pachyrhizi = assay: Fungicidal activity against Phakopsora pachyrhizi / soybean / leaf disc preventative (Asian soybean rust); format: in vivo; conditions: foliar, 200 ppm in the applied formulation, soybean leaf disks, compared to untreated control leaf disks, read-out: disease control
In short: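 Preventative soybean leaf-disc test: discs on water agar sprayed with diluted formulated compound, inoculated one day later with spores on the lower surface. Held 24–36 h dark at 20°C, 75% rh, then 12 h light/day; percent disease control versus untreated discs scored 12–14 days after application.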

[3] = test system: Glomerella lagenarium (Colletotrichum lagenarium); assay: Fungicidal activity against Glomerella lagenarium (Colletotrichum lagenarium) liquid culture / cucumber / preventative (anthracnose); format: cell-based; conditions: Colletotrichum orbiculare; 20 ppm in the applied formulation; liquid culture (PDB), growth inhibition measured photometrically after 3 to 4 days; compared to untreated control; read-out: disease control
In short: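 Photometric read-out of fungal growth after 2–7 days, expressed as percent antifungal activity versus untreated check. Cryo-stored conidia in PDB; compound at 20 ppm; dark, 24 °C, 96% RH.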

CON(Cc1ccc(-c2noc(C(F)(F)F)n2)cc1)C(=O)CC1CC1 [Compound 1.26, 2-cyclopropyl-N-methoxy-N-[[4-[5-(trifluoromethyl)-1,2,4-oxadiazol-3-yl]phenyl]methyl]-acetamide]
≥ 80%: pest or weed control at 200 ppm [1] | pest or weed control at 200 ppm [2] | pest or weed control at 200 ppm (Phakopsora Pachyrhizi) | inhibition of growth at 20 ppm [3]

CON(Cc1ccc(-c2noc(C(F)(F)F)n2)cc1)C(=O)C1CCCC1 [Compound 1.27, N-methoxy-N-[[4-[5-(trifluoromethyl)-1,2,4-oxadiazol-3-yl]phenyl]methyl]-cyclopentane-carboxamide]
≥ 80%: pest or weed control at 200 ppm [1] | pest or weed control at 200 ppm [2] | pest or weed control at 200 ppm (Phakopsora Pachyrhizi) | inhibition of growth at 20 ppm [3]

CON(Cc1ccc(-c2noc(C(F)(F)F)n2)cc1)C(=O)Cc1cccnc1 [Compound 1.28, N-methoxy-2-(3-pyridyl)-N-[[4-[5-(trifluoromethyl)-1,2,4-oxadiazol-3-yl]phenyl]methyl]-acetamide]
≥ 80%: pest or weed control at 200 ppm [1] | pest or weed control at 200 ppm [2] | pest or weed control at 200 ppm (Phakopsora Pachyrhizi) | inhibition of growth at 20 ppm [3]

CON(Cc1ccc(-c2noc(C(F)(F)F)n2)cc1)C(=O)C1CCOC1 (centres unmarked) [Compound 1.29, N-methoxy-N-[[4-[5-(trifluoromethyl)-1,2,4-oxadiazol-3-yl]phenyl]methyl]-tetrahydrofuran-3-carboxamide]
≥ 80%: pest or weed control at 200 ppm [1] | pest or weed control at 200 ppm [2] | pest or weed control at 200 ppm (Phakopsora Pachyrhizi) | inhibition of growth at 20 ppm [3]

CON(Cc1ccc(-c2noc(C(F)(F)F)n2)cc1)C(=O)C1CSC1 [Compound 1.30, N-methoxy-N-[[4-[5-(trifluoromethyl)-1,2,4-oxadiazol-3-yl]phenyl]methyl]-thietane-3-carboxamide]
≥ 80%: pest or weed control at 200 ppm [1] | pest or weed control at 200 ppm [2] | pest or weed control at 200 ppm (Phakopsora Pachyrhizi) | inhibition of growth at 20 ppm [3]

COCCC(=O)N(Cc1ccc(-c2noc(C(F)(F)F)n2)cc1)OC [Compound 1.31, N,3-dimethoxy-N-[[4-[5-(trifluoromethyl)-1,2,4-oxadiazol-3-yl]phenyl]methyl]-propanamide]
≥ 80%: pest or weed control at 200 ppm [1] | pest or weed control at 200 ppm [2] | pest or weed control at 200 ppm (Phakopsora Pachyrhizi) | inhibition of growth at 20 ppm [3]

CON(Cc1ccc(-c2noc(C(F)(F)F)n2)cc1)C(=O)C1(C)CC1(Cl)Cl (centres unmarked) [Compound 1.32, 2,2-dichloro-N-methoxy-1-methyl-N-[[4-[5-(trifluoromethyl)-1,2,4-oxadiazol-3-yl]phenyl]methyl]-cyclopropane-carboxamide]
≥ 80%: pest or weed control at 200 ppm [1] | pest or weed control at 200 ppm [2] | pest or weed control at 200 ppm (Phakopsora Pachyrhizi) | inhibition of growth at 20 ppm [3]

CON(Cc1ccc(-c2noc(C(F)(F)F)n2)cc1)C(=O)CC(C)C [Compound 1.34, N-methoxy-3-methyl-N-[[4-[5-(trifluoromethyl)-1,2,4-oxadiazol-3-yl]phenyl]methyl]-butanamide]
≥ 80%: pest or weed control at 200 ppm [1] | pest or weed control at 200 ppm [2] | pest or weed control at 200 ppm (Phakopsora Pachyrhizi) | inhibition of growth at 20 ppm [3]

CON(Cc1ccc(-c2noc(C(F)(F)F)n2)cc1)C(=O)C(C)(C)CCl [Compound 1.35, 3-chloro-N-methoxy-2,2-dimethyl-N-[[4-[5-(trifluoromethyl)-1,2,4-oxadiazol-3-yl]phenyl]methyl]-propanamide]
≥ 80%: pest or weed control at 200 ppm [1] | pest or weed control at 200 ppm [2] | pest or weed control at 200 ppm (Phakopsora Pachyrhizi) | inhibition of growth at 20 ppm [3]

CON(Cc1ccc(-c2noc(C(F)(F)F)n2)cc1)C(=O)CC(F)(F)F [Compound 1.36, 3,3,3-trifluoro-N-methoxy-N-[[4-[5-(trifluoromethyl)-1,2,4-oxadiazol-3-yl]phenyl]methyl]-propanamide]
≥ 80%: pest or weed control at 200 ppm [1] | pest or weed control at 200 ppm [2] | pest or weed control at 200 ppm (Phakopsora Pachyrhizi) | inhibition of growth at 20 ppm [3]

CON(Cc1ccc(-c2noc(C(F)(F)F)n2)cc1)C(=O)C1CCC1 [Compound 1.38, N-methoxy-N-[[4-[5-(trifluoromethyl)-1,2,4-oxadiazol-3-yl]phenyl]methyl]-cyclobutane-carboxamide]
≥ 80%: pest or weed control at 200 ppm [1] | pest or weed control at 200 ppm [2] | pest or weed control at 200 ppm (Phakopsora Pachyrhizi) | inhibition of growth at 20 ppm [3]

CON(Cc1ccc(-c2noc(C(F)(F)F)n2)cc1)C(=O)C1CC1C (centres unmarked) [Compound 1.40, N-methoxy-2-methyl-N-[[4-[5-(trifluoromethyl)-1,2,4-oxadiazol-3-yl]phenyl]methyl]-cyclopropane-carboxamide]
≥ 80%: pest or weed control at 200 ppm [1] | pest or weed control at 200 ppm [2] | pest or weed control at 200 ppm (Phakopsora Pachyrhizi) | inhibition of growth at 20 ppm [3]

CON(Cc1ccc(-c2noc(C(F)(F)F)n2)cc1)C(=O)CC(C)(C)C [Compound 1.41, N-methoxy-3,3-dimethyl-N-[[4-[5-(trifluoromethyl)-1,2,4-oxadiazol-3-yl]phenyl]methyl]-butanamide]
≥ 80%: pest or weed control at 200 ppm [1] | pest or weed control at 200 ppm [2] | pest or weed control at 200 ppm (Phakopsora Pachyrhizi) | inhibition of growth at 20 ppm [3]

CON(Cc1ccc(-c2noc(C(F)(F)F)n2)cc1)C(=O)C(C)(C)C [Compound 1.42, N-methoxy-2,2-dimethyl-N-[[4-[5-(trifluoromethyl)-1,2,4-oxadiazol-3-yl]phenyl]methyl]-propanamide]
≥ 80%: pest or weed control at 200 ppm [1] | pest or weed control at 200 ppm [2] | pest or weed control at 200 ppm (Phakopsora Pachyrhizi) | inhibition of growth at 20 ppm [3]

CON(Cc1ccc(-c2noc(C(F)(F)F)n2)cc1)C(=O)C1(C)CC1 [Compound 1.43, N-methoxy-1-methyl-N-[[4-[5-(trifluoromethyl)-1,2,4-oxadiazol-3-yl]phenyl]methyl]-cyclopropane-carboxamide]
≥ 80%: pest or weed control at 200 ppm [1] | pest or weed control at 200 ppm [2] | pest or weed control at 200 ppm (Phakopsora Pachyrhizi) | inhibition of growth at 20 ppm [3]

CON(Cc1ccc(-c2noc(C(F)(F)F)n2)cc1)C(=O)c1ccccc1Cl [Compound 1.44, 2-chloro-N-methoxy-N-[[4-[5-(trifluoromethyl)-1,2,4-oxadiazol-3-yl]phenyl]methyl]-benzamide]
≥ 80%: pest or weed control at 200 ppm [1] | pest or weed control at 200 ppm [2] | pest or weed control at 200 ppm (Phakopsora Pachyrhizi) | inhibition of growth at 20 ppm [3]

C=C(C)C(=O)N(Cc1ccc(-c2noc(C(F)(F)F)n2)cc1)OC [Compound 1.45, N-methoxy-2-methyl-N-[[4-[5-(trifluoromethyl)-1,2,4-oxadiazol-3-yl]phenyl]methyl]-prop-2-enamide]
≥ 80%: pest or weed control at 200 ppm [1] | pest or weed control at 200 ppm [2] | pest or weed control at 200 ppm (Phakopsora Pachyrhizi) | inhibition of growth at 20 ppm [3]

CON(Cc1ccc(-c2noc(C(F)(F)F)n2)cc1)C(=O)C1CCSCC1 [Compound 1.46, N-methoxy-N-[[4-[5-(trifluoromethyl)-1,2,4-oxadiazol-3-yl]phenyl]methyl] tetrahydrothiopyran-4-carboxamide]
≥ 80%: pest or weed control at 200 ppm [1] | pest or weed control at 200 ppm [2] | pest or weed control at 200 ppm (Phakopsora Pachyrhizi) | inhibition of growth at 20 ppm [3]

CON(Cc1ccc(-c2noc(C(F)(F)F)n2)cc1)C(=O)C1CC1(C)C (centres unmarked) [Compound 1.47, N-methoxy-2,2-dimethyl-N-[[4-[5-(trifluoromethyl)-1,2,4-oxadiazol-3-yl]phenyl]methyl]-cyclopropane-carboxamide]
≥ 80%: pest or weed control at 200 ppm [1] | pest or weed control at 200 ppm [2] | pest or weed control at 200 ppm (Phakopsora Pachyrhizi) | inhibition of growth at 20 ppm [3]

CCC(C)C(=O)N(Cc1ccc(-c2noc(C(F)(F)F)n2)cc1)OC (centres unmarked) [Compound 1.48, N-methoxy-2-methyl-N-[[4-[5-(trifluoromethyl)-1,2,4-oxadiazol-3-yl]phenyl]methyl]-butanamide]
≥ 80%: pest or weed control at 200 ppm [1] | pest or weed control at 200 ppm [2] | pest or weed control at 200 ppm (Phakopsora Pachyrhizi) | inhibition of growth at 20 ppm [3]

CON(Cc1ccc(-c2noc(C(F)(F)F)n2)cc1)C(=O)Cc1ccc(Cl)cc1 [Compound 1.49, 2-(4-chlorophenyl)-N-methoxy-N-[[4-[5-(trifluoromethyl)-1,2,4-oxadiazol-3-yl]phenyl]methyl]-acetamide]
≥ 80%: pest or weed control at 200 ppm [1] | pest or weed control at 200 ppm [2] | pest or weed control at 200 ppm (Phakopsora Pachyrhizi) | inhibition of growth at 20 ppm [3]

CON(Cc1ccc(-c2noc(C(F)(F)F)n2)cc1)C(=O)C1(C)COC1 [Compound 1.50, N-methoxy-3-methyl-N-[[4-[5-(trifluoromethyl)-1,2,4-oxadiazol-3-yl]phenyl]methyl]-oxetane-3-carboxamide]
≥ 80%: pest or weed control at 200 ppm [1] | pest or weed control at 200 ppm [2] | pest or weed control at 200 ppm (Phakopsora Pachyrhizi) | inhibition of growth at 20 ppm [3]

CON(Cc1ccc(-c2noc(C(F)(F)F)n2)cc1)C(=O)CCCCC(F)(F)F [Compound 1.53, 6,6,6-trifluoro-N-methoxy-N-[[4-[5-(trifluoromethyl)-1,2,4-oxadiazol-3-yl]phenyl]methyl]-hexanamide]
≥ 80%: pest or weed control at 200 ppm [1] | pest or weed control at 200 ppm [2] | pest or weed control at 200 ppm (Phakopsora Pachyrhizi) | inhibition of growth at 20 ppm [3]
